{
  "source": "ChEMBL document CHEMBL3871301",
  "about": "“Biotransformation of isofraxetin-6-O-β-d-glucopyranoside by Angelica sinensis (Oliv.) Diels callus” (Bioorg Med Chem Lett, 2017)",
  "key": {"cells": {"test": "cells", "conditions": "Mus musculus, BV-2, 24 h", "description": "Antineuroinflammatory activity in mouse BV2 cells assessed as inhibition of LPS-induced NO production after 24 hrs in presence of LPS by Griess reaction based assay"}, "Mus musculus": {"species_on_record": "Mus musculus", "test": "Cytotoxicity against mouse BV2 cells assessed as reduction in cell viability at antineuroinflammatory IC50 after 24 hrs in presence of LPS by MTT assay", "assay_type": "toxicity, cell-based", "conditions": "bv-2, 24 h"}},
  "data": [
    {"smiles": "COc1cc2ccc(=O)oc2c(OC)c1O", "values": [
      {"measurement": "IC50", "setting": "cells", "result": "> 100", "unit": "µM"}
    ]},
    {"smiles": "O=Cc1c[nH]c2ccccc12", "note": "[3-FORMYLINDOLE]", "values": [
      {"measurement": "Activity", "setting": "Mus musculus", "result": "Non-Toxic"},
      {"measurement": "IC50", "setting": "cells", "result": 0.76, "unit": "µM"}
    ]},
    {"smiles": "NC(=O)Cc1ccccc1", "values": [
      {"measurement": "IC50", "setting": "cells", "result": "> 100", "unit": "µM"}
    ]},
    {"smiles": "COC(=O)Nc1ccc(C)c(NC(=O)OC)c1", "values": [
      {"measurement": "Activity", "setting": "Mus musculus", "result": "Non-Toxic"},
      {"measurement": "IC50", "setting": "cells", "result": 10.6, "unit": "µM"}
    ]},
    {"smiles": "O=c1cc[nH]c(=O)[nH]1", "note": "[URACIL]", "values": [
      {"measurement": "IC50", "setting": "cells", "result": "> 100", "unit": "µM"}
    ]},
    {"smiles": "COc1cc2c(c(OC)c1OC)-c1c(cc3c(c1OC)OCO3)C[C@H](C)[C@H](C)C2", "note": "[WUWEIZISU B]", "values": [
      {"measurement": "IC50", "setting": "cells", "result": "> 100", "unit": "µM"}
    ]},
    {"smiles": "CN(C)c1ccc(O)c2c1C[C@H]1C[C@H]3[C@H](N(C)C)C(O)=C(C(N)=O)C(=O)[C@@]3(O)C(O)=C1C2=O", "note": "[MINOCYCLINE]", "values": [
      {"measurement": "IC50", "setting": "cells", "result": 35.8, "unit": "µM"}
    ]},
    {"smiles": "COc1cc([C@@H]2COc3c(c(OC)cc4ccc(=O)oc34)O2)ccc1O", "values": [
      {"measurement": "IC50", "setting": "cells", "result": "> 100", "unit": "µM"}
    ]},
    {"smiles": "COc1ccc(Cc2ccc(OC)cc2)cc1", "values": [
      {"measurement": "Activity", "setting": "Mus musculus", "result": "Non-Toxic"},
      {"measurement": "IC50", "setting": "cells", "result": 1.22, "unit": "µM"}
    ]},
    {"smiles": "COc1cc2oc(=O)ccc2c(O)c1O", "values": [
      {"measurement": "IC50", "setting": "cells", "result": "> 100", "unit": "µM"}
    ]},
    {"smiles": "COc1cc([C@H]2Oc3c(OC)cc4ccc(=O)oc4c3O[C@@H]2CO)ccc1O", "note": "[CLEOMISCOSIN A]", "values": [
      {"measurement": "IC50", "setting": "cells", "result": "> 100", "unit": "µM"}
    ]},
    {"smiles": "COc1cc2c(c(OC)c1OC)-c1c(cc(OC)c(OC)c1OC)C[C@@](C)(O)[C@@H](C)C2", "values": [
      {"measurement": "IC50", "setting": "cells", "result": "> 100", "unit": "µM"}
    ]}
  ]
}
